Laboratory results published in patent publication US5786447A, “Opioid peptide analogs” (Astra AB, priority 1994, dated 1998).
Residues, ends and D or L forms follow the SMILES beside them.

Experiments:
μ opioid receptor = target: T1, μ opioid receptor (Rattus norvegicus, UniProt P33535); assay: μ opioid receptor binding, displacement of [3H]DAMGO from rat brain membranes; conditions: [3H]DAMGO 0.7 nM, Cheng-Prusoff, means of three determinations ± SEM
T1 construct: from tissue; host or cells: rat brain membranes (cerebellum removed), Sprague-Dawley
T1 sequence (P33535 whole entry): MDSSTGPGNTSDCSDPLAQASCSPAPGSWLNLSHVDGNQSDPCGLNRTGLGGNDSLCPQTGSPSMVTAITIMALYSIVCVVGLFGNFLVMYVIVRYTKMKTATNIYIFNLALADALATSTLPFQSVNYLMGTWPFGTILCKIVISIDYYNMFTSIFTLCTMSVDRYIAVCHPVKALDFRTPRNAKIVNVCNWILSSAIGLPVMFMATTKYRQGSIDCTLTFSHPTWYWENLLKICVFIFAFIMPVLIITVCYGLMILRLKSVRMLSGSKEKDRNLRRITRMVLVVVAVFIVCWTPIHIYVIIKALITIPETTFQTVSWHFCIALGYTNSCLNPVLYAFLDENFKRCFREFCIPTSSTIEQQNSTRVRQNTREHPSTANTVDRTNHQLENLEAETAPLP
Source text: (§1) In the case of κ-ligands guinea pig brain homogenates were used, since the relative proportion of κ-binding sites is higher in guinea pig brain than in rat brain. The experimental procedure being used in our laboratory represents a modified version of the binding assay described by Paternak et al. (Mol. Pharmacol. 11 340-351, (1975)). Male Sprague-Dawley rats (300-350 g) from the Canadian Breeding Laboratories were decapitated and after removal of the cerebellum the brains were homogenized in 30 volumes of ice-cold standard buffer (50 mM Tris-HCl, pH 7.7). After centrifugation at 30,000×g for 30 min at 4° C. the membranes were reconstituted in the original volume of standard buffer and incubated for 30 min at 37° C. (to release bound endogenous ligands). […] The incubation was terminated by filtration through Whatman GF/B filters under vacuum at 4° C. Following two washings with 5 ml portions of ice-cold standard buffer the filters were transferred to scintillation vials and treated with 1 ml Protosol (New England Nuclear) for 30 min prior to the addition of 0.5 ml acetic acid and 10 ml Aquasol (New England Nuclear). After shaking for 30 min the vials were counted at an efficiency of 40-45%. All experiments were performed in duplicates and repeated at least three times. Specific binding of each of the three radioglands was defmed by performing incubations in the presence of cold DAMGO, DSLET and U69,563, respectively, at a concentration of 1 micromolar. Values of half-maximal inhibition (IC50) of specific binding were obtained graphically from semilogarithmic plots. From the measured IC50-values, binding inhibition constants (Ki) were then calculated based on Cheng and Prussoff's equation (Biochem. Pharmacol. 22, 3099-3102 (1973)). Ratios of the Ki -values in the μ-, δ- and κ-representative bindning assays are a measure of the receptor selectivity of the compound under investigation (e.g. Ki^δ/ Ki^μ indicated the selectivity for μ-receptors versus δ-receptors).

δ opioid receptor = target: T2, δ opioid receptor (Rattus norvegicus, UniProt P33533); assay: δ opioid receptor binding, displacement of δ-selective radioligand from rat brain membranes
T2 construct: from tissue; host or cells: rat brain membranes (cerebellum removed), Sprague-Dawley
T2 sequence (P33533 whole entry): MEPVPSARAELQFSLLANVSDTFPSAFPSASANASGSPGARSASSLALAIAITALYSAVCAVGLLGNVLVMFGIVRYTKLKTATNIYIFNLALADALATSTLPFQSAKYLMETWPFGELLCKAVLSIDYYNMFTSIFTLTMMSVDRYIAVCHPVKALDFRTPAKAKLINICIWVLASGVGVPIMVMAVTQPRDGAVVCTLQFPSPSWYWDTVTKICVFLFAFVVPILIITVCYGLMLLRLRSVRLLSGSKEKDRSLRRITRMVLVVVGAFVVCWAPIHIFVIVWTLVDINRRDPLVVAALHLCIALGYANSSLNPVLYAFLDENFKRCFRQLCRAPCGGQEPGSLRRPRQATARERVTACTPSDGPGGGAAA
Source text: as §1

δ opioid receptors = target: T3, δ opioid receptors (Mus musculus, UniProt P32300); assay: MVD assay: inhibition of electrically evoked contractions of the mouse vas deferens (δ antagonist Ke); type: cell-based; conditions: means of 3-8 determinations ± SEM
T3 construct: Bioassays Using Isolated Organ Preparations; from tissue; host or cells: isolated mouse vas deferens
T3 sequence (P32300 whole entry): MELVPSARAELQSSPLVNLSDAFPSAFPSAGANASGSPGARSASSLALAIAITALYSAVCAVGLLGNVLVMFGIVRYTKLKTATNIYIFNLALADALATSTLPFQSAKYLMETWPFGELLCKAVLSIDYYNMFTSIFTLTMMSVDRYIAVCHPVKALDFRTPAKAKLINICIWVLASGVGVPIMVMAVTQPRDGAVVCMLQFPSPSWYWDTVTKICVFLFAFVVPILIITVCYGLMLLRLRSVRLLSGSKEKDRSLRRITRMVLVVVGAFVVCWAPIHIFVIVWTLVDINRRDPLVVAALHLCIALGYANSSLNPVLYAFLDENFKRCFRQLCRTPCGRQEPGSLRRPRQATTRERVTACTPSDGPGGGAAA
Experimental: (§2) a) Bioassays based on inhibition of electrically evoked contractions of the mouse vas deferens (MVD) and of the guinea pig ileum (GPI). In the GPI assay the opioid effect is primarily mediated by μ opioid receptors, whereas in the MVD assay the inhibition of the contractions is mostly due to interaction with δ opioid receptors.
(§3) The GPI and MVD bioassays were carried out as reported in P. W. Schiller et al., Biochem. Biophys. Res. Commun 85, 1332-1338 (1978) and J. Di Maio et al., J. Med. Chem. 25, 1432-1438 (1982). A log dose-response curve was determined with [Leu^5 ] enkephalin as standard for each ileum and vas preparation, and IC50 values of the compounds being tested were normalized according to A. A. Waterfield et al., Eur. J. Pharmacol. 58, 11-18 (1979). Ke values for the cyclic β-casomorphin analogs with mixed μ agonist/δ antagonist properties (δ antagonist effect) were determined from the ratio of IC50 values (DR) obtained in the presence and absence of a fixed antagonist concentration (a) (Ke =a/(DR-1)) H. W. Kosterlitz & A. J. Watt, Br. J. Pharmacol. 33, 266-276 (1968). These determinations were made with the MVD assay, using three different δ-selective agonists ([Leu^5 ]enkephalin, DPDPE and [D-Ala^2]deltorphin I].

μ opioid receptors = μ opioid receptors (Cavia porcellus, UniProt P97266); assay: GPI assay: inhibition of electrically evoked contractions of the guinea pig ileum; type: cell-based; conditions: means of 3-6 determinations ± SEM, normalized to [Leu5]enkephalin standard, read-out: IC50 in the GPI assay (agonist potency)
μ opioid receptors, sequence (P97266 whole entry, looked up): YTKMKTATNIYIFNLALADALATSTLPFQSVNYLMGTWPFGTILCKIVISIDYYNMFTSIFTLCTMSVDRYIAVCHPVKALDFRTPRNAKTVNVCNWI
Experimental: as §2, §3

CN1CC(=O)NCCC[C@@H](NC(=O)[C@@H](N)Cc2ccc(O)cc2)C(=O)N[C@@H](Cc2ccc3ccccc3c2)C(=O)N2CCC[C@@H]2C1=O [Example 2, H-Tyr-c[-D-Orn-2-Nal-D-Pro-Sar-]] (HELM PEPTIDE1{Y.[O=C([C@@H](CCCN[*:3])N[*:1])[*:2]].[O=C([C@H](Cc1ccc2ccccc2c1)N[*:1])[*:2]].[dP].[Sar]}$PEPTIDE1,PEPTIDE1,2:R3-5:R2$$$V2.0)
Ki (μ opioid receptor): 14.8 ± 0.7 nM | Ki^δ/Ki^μ (selectivity for μ versus δ receptors) (δ opioid receptor; ratio of binding constants): 0.163 | Ki (δ opioid receptor; δ-selective radioligand 1.0 nM, Cheng-Prusoff, means of three determinations ± SEM): 2.41 ± 0.34 nM | Ke in the MVD assay, antagonist potency against DPDPE (δ opioid receptors; δ agonist DPDPE): 11.2 ± 2.1 | Ke in the MVD assay, antagonist potency against [D-Ala2]deltorphin I (δ opioid receptors; δ agonist [D-Ala2]deltorphin I): 7.81 ± 1.90 | Ke in the MVD assay, antagonist potency against [Leu5]enkephalin (δ opioid receptors; δ agonist [Leu5]enkephalin): 17.0 ± 3.60 | IC50 (μ opioid receptors): 159 nM
